“And” between values parts separate entries of the source, which are not always exact repeats. Identical values can stand only once. “Also recorded” adds a separate entry of the source. Like-named read-outs stand apart in the source and are kept apart here.
Columns and labels:
PSMA = molecular target: T1, PSMA (Homo sapiens, UniProt Q04609); experiment: Equilibrium dissociation constant Kd / Bmax, saturation binding on PSMA-positive LNCaP cells; settings: Scatchard plots
T1 construct: host or cells: LNCaP cells
T1 sequence (Q04609 whole entry): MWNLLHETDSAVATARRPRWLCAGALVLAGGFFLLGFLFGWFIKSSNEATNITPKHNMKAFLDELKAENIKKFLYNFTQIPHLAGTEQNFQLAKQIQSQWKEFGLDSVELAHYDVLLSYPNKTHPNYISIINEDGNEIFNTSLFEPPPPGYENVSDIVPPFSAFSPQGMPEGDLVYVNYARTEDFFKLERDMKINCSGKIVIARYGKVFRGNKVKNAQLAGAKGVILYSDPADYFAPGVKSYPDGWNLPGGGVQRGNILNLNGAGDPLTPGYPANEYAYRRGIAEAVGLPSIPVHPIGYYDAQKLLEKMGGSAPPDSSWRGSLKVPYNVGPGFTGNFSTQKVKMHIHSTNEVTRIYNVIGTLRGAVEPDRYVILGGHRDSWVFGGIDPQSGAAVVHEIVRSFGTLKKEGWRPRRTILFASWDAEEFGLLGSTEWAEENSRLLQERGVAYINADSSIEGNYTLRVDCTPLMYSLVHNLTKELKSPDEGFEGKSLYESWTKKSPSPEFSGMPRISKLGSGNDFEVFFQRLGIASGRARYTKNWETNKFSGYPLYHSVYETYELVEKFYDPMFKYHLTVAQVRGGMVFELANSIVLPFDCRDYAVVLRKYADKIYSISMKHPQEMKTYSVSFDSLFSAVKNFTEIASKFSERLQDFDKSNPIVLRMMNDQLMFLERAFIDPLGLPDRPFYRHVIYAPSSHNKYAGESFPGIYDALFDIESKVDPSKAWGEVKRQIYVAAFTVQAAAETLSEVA
Protocol: The equilibrium dissociation constant describing the interaction of the radiolabeled ligands with the PSMA binding sites was determined in PSMA-positive LNCaP cell lines (Cell Line Service, Eppelheim, Germany). LNCaP cells were seeded at a density of 10^6 cells/well on a 6-well plate (Corning, ME, USA) and incubated under 5% CO2 at 37 °C for 48 h with medium (minimum essential medium Eagle supplemented with 2 mM L-glutamine, 0.1 mM non-essential amino acids (NEAA), 1.0 mM sodium pyruvate, 10% fetal bovine serum, 100 U/ml penicillin, and 100 µg/ml streptomycin) (Lonza, Verviers, Belgium) in a humidified incubator (Thermo Heracell 150 CO2-Incubator, MA, USA). To determine the nonspecific binding, the medium was removed from selected wells, and 1 ml of a solution of 0.1 mM of 2-(phosphonomethyl)-pentanedioic acid (2-PMPA) in fresh medium was added. […] The plates were then incubated under 5% CO2, at 37 °C for 1 h. After that, the medium was removed and the cells incubated under the same incubation conditions for 3 h with different concentrations (0.25 nM, 2.5 nM, 5 nM, 10 nM, 25 nM, 50 nM, and 75 nM) of the radiotracer under investigation in 1 ml fresh medium.
After 3 h, the cells were washed three times with 1 ml PBS, and the cells were finally lysed by adding 1 ml of 1 M NaOH and incubating them for 10 min at room temperature. All samples were measured with a gamma counter (Nuklear Medizintechnik Dresden Isomed 100, Dresden, Germany) and were decay-corrected. The equilibrium dissociation constant (Kd) and the maximum density of receptors (Bmax) were calculated by non-linear regression using GraphPad Prism 8.0.2 (GraphPad Software, San Diego, USA).

LNCaP cells [1] = experiment: Cellular uptake (specific cell binding) in LNCaP cells; assay type: cell-based; settings: n=3
Protocol: (§1) The cell binding determined in these experiments is the sum of specific and nonspecific cell binding. To determine the values for nonspecific cell binding and internalization, all experiments were additionally performed in the presence of 2-PMPA.
(§2) The plates were incubated for 1 h; after which, 0.75 pmol of the radiotracer to be examined was added to 1 ml of fresh medium. The cells were incubated for 30 min, 1, 2, 3, and 5 h. At each time point, the supernatant was removed and the cells washed with 1 ml of PBS. To dissociate the receptor-bound radioligand, the cells were washed twice with 1 ml of a 0.1 M glycine buffer solution at pH 2.8 for 5 min. The 0.1 M glycine–HCl buffer dissociated all the surface-bound complexes. The cells were then washed with 1 ml of PBS, and the internalized fraction was determined by solubilizing the cells with 1 ml of 1 M NaOH and incubating them for 10 min at room temperature. The radioactivity collected from the culture medium, 0.1 M glycine (surface-bound), and 1 M NaOH (internalized fraction) was measured in a gamma counter and decay-corrected. Cell binding was calculated from the surface-bound (0.1 M glycine) and the internalized fraction (1 M NaOH). The internalized fraction was expressed as a percentage of cell binding (internalization to cell-bound radioactivity ratio). All cell uptake experiments were run in triplicate.

LNCaP cells [2] = experiment: Internalization in LNCaP cells; assay type: cell-based; settings: n=3
Protocol: as §1, §2

prostate cancer relapse = experiment: First-in-human PET/CT scan in a patient with biochemical recurrence of prostate cancer; settings: for SUVmax left prostate lobe / SUVmax right prostate lobe: 93 MBq
Protocol: The patient had given their written informed consent for PET imaging and the scientific evaluation of their data. All procedures were performed in accordance with the Institutional Review Board and the regulations of the regional authorities in Cologne. The kidney dose was estimated on the basis of two PET scans. The following assumptions were made for the estimation: Between time 0 (injection) and the first measuring point, the time-activity-curve follows a constant progression. All measuring points were integrated numerically using trapezoidal approximation. From the last measuring point to infinity, a mono-exponential function was fitted and integrated. As the effective half-life could not be accurately determined from two measurement points, the physical half-life of Zr-89 was used instead.

LNCaP tumor xenografts = settings: for Tumor/blood ratio / Tumor/kidneys ratio / Tumor/liver ratio / Tumor/muscle ratio: LNCaP xenograft mice; for Biodistribution Blood / Biodistribution Bone / Biodistribution Heart / Biodistribution Intestine / Biodistribution Kidneys / Biodistribution LNCAP-tumor / Biodistribution Liver / Biodistribution Lung / Biodistribution Muscle / Biodistribution Prostate / Biodistribution Spleen / Biodistribution Thyroid: i.v. 30 pmol, n=5
LNCaP tumor xenograft = experiment: Small-animal PET in mice bearing an LNCaP tumor xenograft, with and without blocking by 2-PMPA

## CC(=O)N1CCCCCNC(=O)CCC(=O)N2CCCCCNC(=O)CCC(=O)N(CCCCCNC(=O)CCC(=O)NCC3CCC(C(=O)NC(Cc4ccc5ccccc5c4)C(=O)NCCCCC(NC(=O)NC(CCC(=O)O)C(=O)O)C(=O)O)CC3)[O][89Zr+]([O]1)[O]2 (centres unmarked) [[^89Zr]Zr-PSMA-DFO, [^89Zr]Zr-N-sucDf-AMCHA-2Nal-EuK]
PSMA
  Bmax (maximum achievable concentration on 10^6 tumor cells): 1428 ± 42 fmol/10^6 cells
LNCaP cells [1]; 0.5 h
  Specific binding in LNCaP cells as percentage of total activity: 29.1±2.1%
LNCaP cells [1]; 1 h
  Specific binding in LNCaP cells as percentage of total activity: 38.5±2.3%
LNCaP cells [1]; 2 h
  Specific binding in LNCaP cells as percentage of total activity: 46.5±1.3%
LNCaP cells [1]; 3 h
  Specific binding in LNCaP cells as percentage of total activity: 48.8±1.0%
LNCaP cells [1]; 5 h
  Specific binding in LNCaP cells as percentage of total activity: 49.4±1.3%
LNCaP cells [2]; 0.5 h
  Specific internalized activity as percentage of specific cell-bound activity: 32.7±4.1%
LNCaP cells [2]; 1 h
  Specific internalized activity as percentage of specific cell-bound activity: 39.8±0.4%
LNCaP cells [2]; 2 h
  Specific internalized activity as percentage of specific cell-bound activity: 48.0±3.4%
LNCaP cells [2]; 3 h
  Specific internalized activity as percentage of specific cell-bound activity: 50.0±0.6%
LNCaP cells [2]; 5 h
  Specific internalized activity as percentage of specific cell-bound activity: 61.7±3.4%
Prostate cancer relapse
  Overall effective dose (ICRP 60): 0.11 mSv/MBq
Prostate cancer relapse; 48 h p.i.
  SUVmax left prostate lobe: 9.47
  SUVmax right prostate lobe: 13.25
Prostate cancer relapse; 72 h p.i.
  SUVmax left prostate lobe: 7.14
  SUVmax right prostate lobe: 13.05
Prostate cancer relapse; estimated from two PET scans
  Kidney dose: 2.8 mGy/MBq
37 °C, PBS and human serum, TLC, HPLC in PBS, listed as Zr-89-radioligand
  Period over which the radioligand was found stable: 7 days
Storage in aqueous solution for 7 days
  Radiochemical purity remaining on storage: > 99%
LNCaP tumor xenografts; 2 h p.i.
  Tumor/blood ratio: 183 ± 42
  Tumor/kidneys ratio: 0.31 ± 0.06
  Tumor/liver ratio: 27.5 ± 3.2
  Tumor/muscle ratio: 534 ± 62
  Biodistribution Blood: 0.14 ± 0.02 %ID/g
  Biodistribution Bone: 0.15 ± 0.04 %ID/g
  Biodistribution Heart: 0.11 ± 0.05 %ID/g
  Biodistribution Intestine: 0.65 ± 0.15 %ID/g
  Biodistribution Kidneys: 86.7 ± 18.7 %ID/g
  Biodistribution LNCAP-tumor: 26.3 ± 5.3 %ID/g
  Biodistribution Liver: 0.95 ± 0.15 %ID/g
  Biodistribution Lung: 0.5 ± 0.04 %ID/g
  Biodistribution Muscle: 0.05 ± 0.02 %ID/g
  Biodistribution Prostate: 0.15 ± 0.04 %ID/g
  Biodistribution Spleen: 0.49 ± 0.07 %ID/g
  Biodistribution Thyroid: 0.18 ± 0.03 %ID/g
LNCaP tumor xenografts; 4 h p.i.
  Tumor/blood ratio: 180 ± 61
  Tumor/kidneys ratio: 0.55 ± 0.01
  Tumor/liver ratio: 29.6 ± 5.1
  Tumor/muscle ratio: 297 ± 62
  Biodistribution Blood: 0.13 ± 0.04 %ID/g
  Biodistribution Bone: 0.13 ± 0.03 %ID/g
  Biodistribution Heart: 0.12 ± 0.03 %ID/g
  Biodistribution Intestine: 0.54 ± 0.10 %ID/g
  Biodistribution Kidneys: 41.3 ± 2.37 %ID/g
  Biodistribution LNCAP-tumor: 22.8 ± 1.5 %ID/g
  Biodistribution Liver: 0.79 ± 0.17 %ID/g
  Biodistribution Lung: 0.12 ± 0.03 %ID/g
  Biodistribution Muscle: 0.08 ± 0.02 %ID/g
  Biodistribution Prostate: 1.12 ± 0.16 %ID/g
  Biodistribution Spleen: 0.61 ± 0.09 %ID/g
  Biodistribution Thyroid: 0.13 ± 0.02 %ID/g
LNCaP tumor xenografts; 24 h p.i.
  Tumor/blood ratio: 309 ± 89
  Tumor/kidneys ratio: 1.0 ± 0.3 and 1.02 ± 0.28
  Tumor/liver ratio: 40.0 ± 1.1
  Tumor/muscle ratio: 450 ± 38
  Biodistribution Blood: 0.05 ± 0.01 %ID/g
  Biodistribution Bone: 0.18 ± 0.02 %ID/g
  Biodistribution Heart: 0.09 ± 0.02 %ID/g
  Biodistribution Intestine: 0.25 ± 0.08 %ID/g
  Biodistribution Kidneys: 15.4 ± 4.1 %ID/g
  Biodistribution LNCAP-tumor: 14.9 ± 1.2 %ID/g
  Biodistribution Liver: 0.37 ± 0.03 %ID/g
  Biodistribution Lung: 0.04 ± 0.01 %ID/g
  Biodistribution Muscle: 0.03 ± 0.01 %ID/g
  Biodistribution Prostate: 0.50 ± 0.01 %ID/g
  Biodistribution Spleen: 0.36 ± 0.08 %ID/g
  Biodistribution Thyroid: 0.05 ± 0.01 %ID/g
LNCaP tumor xenografts; mice, 24 h or 48 h p.i., biokinetics and small-animal PET
  In vivo stability (no time-dependent increase in Zr-89 accumulation in bone): convincing in vivo stability
LNCaP tumor xenograft; 48 h p.i., 10 MBq
  Visibility of LNCaP tumor xenograft in PET: still clearly visible; also recorded: remained clearly visible
LNCaP tumor xenograft; mice, 48 h after injection
  Radioactivity in the bladder: no detectable radioactivity
LNCaP tumor xenograft; mouse, blocking experiment with 2-PMPA
  Share of renal radioactivity due to specific binding: approximately two-thirds

Reference: paper PMC8760230, “Translational Development of a Zr-89-Labeled Inhibitor of Prostate-specific Membrane Antigen for PET Imaging in Prostate Cancer” (Molecular Imaging and Biology, 2021)
